Active and inactive are the calls of the source.
How the values were obtained:
[1] = Luminescence Cell-Based Dose Response HTS to Identify Activators of Luciferase Translation or Activity in H4 […] Cells. [Related pubchem assays: 1829 (Project Summary), 1814 (Primary HTS)]; format: functional
[2] = molecular target: T1, Heat shock factor protein 1 (Mus musculus, UniProt P38532); assay: inhibition of MG132-induced HSE-luciferase signal, confirmation, cell-based, NIH3T3, luminescence, dose retest (AID 2382); format: functional;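 note: NIH3T3 fibroblasts with HSF1-driven luciferase reporter stressed by proteasome inhibitor MG132; luminescence from HSF1-driven luciferase expression after 8 hours of MG132 stress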
T1 sequence (P38532 whole entry): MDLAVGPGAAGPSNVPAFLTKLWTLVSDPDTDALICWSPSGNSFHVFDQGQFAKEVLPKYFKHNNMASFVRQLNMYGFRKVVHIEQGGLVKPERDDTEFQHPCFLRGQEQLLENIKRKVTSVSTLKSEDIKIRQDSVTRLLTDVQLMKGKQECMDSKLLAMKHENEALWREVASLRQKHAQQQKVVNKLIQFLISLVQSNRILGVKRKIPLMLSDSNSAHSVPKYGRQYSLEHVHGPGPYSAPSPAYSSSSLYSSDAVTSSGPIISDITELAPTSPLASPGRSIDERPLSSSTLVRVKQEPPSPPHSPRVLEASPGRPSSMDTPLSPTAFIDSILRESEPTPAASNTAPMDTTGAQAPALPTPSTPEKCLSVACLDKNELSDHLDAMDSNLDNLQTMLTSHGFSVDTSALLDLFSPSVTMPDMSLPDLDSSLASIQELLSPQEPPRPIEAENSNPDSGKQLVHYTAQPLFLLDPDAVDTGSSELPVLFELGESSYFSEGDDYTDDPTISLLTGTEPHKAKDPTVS

[3] = molecular target: Cytochrome P450 2C9 (Homo sapiens, UniProt P11712)
[4] = HEp-2 cell cytotoxicity, dose response, cytotoxicity control for RSV inhibitor project, HTS (AID 2410); format: functional; conditions: human respiratory syncytial virus
[5] = molecular target: Cytochrome P450 2D6 (Homo sapiens, UniProt P10635)
[6] = molecular target: Cytochrome P450 2C19 (Homo sapiens, UniProt P33261); assay: Cytochrome panel assay with activity outcomes. Panel member name: p450-cyp2c19 Compounds with AC50 equal or less than 10 uM are considered active; format: functional
[7] = cells; format: functional
[8] = NIH-3T3 fibroblast cytotoxicity, dose response, cytotoxicity control, cell-based, fluorescence, Alamar Blue, secondary assay (AID 2327); format: functional;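 note: NIH-3T3 mouse fibroblasts cultured with fluconazole at 8 µg/mL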
[9] = growth suppression of PTEN-null colon cells, dose response, cell-based, HCT116 PTEN knockout (AID 1047); format: functional;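 note: HCT116 colon tumor cells with PTEN knocked out; cells exposed to compound for 60 hours before readout; potency for loss of cell viability measured by luminescence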
[10] = growth suppression of beta-catenin-knockout colon cells, dose response, cell-based, HCT116, human colon tumor (AID 1045); format: functional;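 note: HCT116 colon tumor cells with beta catenin knocked out; cells exposed to compound for 60 hours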
[11] = molecular target: Paired box protein Pax-8 (Homo sapiens, UniProt Q06710); assay: inhibitors of PAX8-driven TPO luciferase reporter, dose response, RMG-I cells, cherry-pick (AID 687027); format: functional, cell-based;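 note: luciferase reporter driven by Pax8 target thyroperoxidase promoter measured by SteadyGlo luminescence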
Sequence of Paired box protein Pax-8 (Q06710 whole entry): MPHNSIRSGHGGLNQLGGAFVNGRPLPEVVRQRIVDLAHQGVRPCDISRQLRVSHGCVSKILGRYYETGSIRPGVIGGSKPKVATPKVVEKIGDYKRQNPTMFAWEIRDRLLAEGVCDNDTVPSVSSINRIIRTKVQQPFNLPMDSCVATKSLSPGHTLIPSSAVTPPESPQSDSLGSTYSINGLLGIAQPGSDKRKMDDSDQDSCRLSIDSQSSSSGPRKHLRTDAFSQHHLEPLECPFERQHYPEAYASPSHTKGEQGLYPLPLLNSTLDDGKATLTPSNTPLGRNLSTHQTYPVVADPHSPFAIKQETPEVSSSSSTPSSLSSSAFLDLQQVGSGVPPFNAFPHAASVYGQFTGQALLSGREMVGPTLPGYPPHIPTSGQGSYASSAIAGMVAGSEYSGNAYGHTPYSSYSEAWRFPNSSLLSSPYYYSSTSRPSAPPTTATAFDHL

Sequence of Cytochrome P450 2C9 (P11712 whole entry): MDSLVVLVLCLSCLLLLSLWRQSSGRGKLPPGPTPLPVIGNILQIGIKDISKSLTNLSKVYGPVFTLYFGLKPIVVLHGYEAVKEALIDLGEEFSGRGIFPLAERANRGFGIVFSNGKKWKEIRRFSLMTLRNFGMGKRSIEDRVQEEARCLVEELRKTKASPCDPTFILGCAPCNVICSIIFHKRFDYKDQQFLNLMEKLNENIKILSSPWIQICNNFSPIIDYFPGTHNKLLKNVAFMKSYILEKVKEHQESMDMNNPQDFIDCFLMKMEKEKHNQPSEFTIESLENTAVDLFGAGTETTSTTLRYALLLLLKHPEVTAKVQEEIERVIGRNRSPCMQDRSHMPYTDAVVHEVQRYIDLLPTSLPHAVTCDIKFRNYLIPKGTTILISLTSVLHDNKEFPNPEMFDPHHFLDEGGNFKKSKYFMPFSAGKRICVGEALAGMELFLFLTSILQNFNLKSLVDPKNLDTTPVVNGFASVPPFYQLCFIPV
Sequence of Cytochrome P450 2C19 (P33261 whole entry): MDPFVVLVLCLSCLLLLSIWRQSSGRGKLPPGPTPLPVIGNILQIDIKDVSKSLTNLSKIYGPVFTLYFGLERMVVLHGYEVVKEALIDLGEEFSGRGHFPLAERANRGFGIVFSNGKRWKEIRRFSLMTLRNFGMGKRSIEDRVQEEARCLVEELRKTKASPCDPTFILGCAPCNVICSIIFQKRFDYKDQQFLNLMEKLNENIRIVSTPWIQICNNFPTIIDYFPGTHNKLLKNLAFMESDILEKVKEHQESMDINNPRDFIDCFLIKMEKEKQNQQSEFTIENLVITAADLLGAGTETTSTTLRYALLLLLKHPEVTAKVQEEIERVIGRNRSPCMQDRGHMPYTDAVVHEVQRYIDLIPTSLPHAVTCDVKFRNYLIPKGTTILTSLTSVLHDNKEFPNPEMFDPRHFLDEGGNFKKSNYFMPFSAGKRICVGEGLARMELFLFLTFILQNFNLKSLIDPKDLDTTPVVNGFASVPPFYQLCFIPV
Sequence of Cytochrome P450 2D6 (P10635 whole entry): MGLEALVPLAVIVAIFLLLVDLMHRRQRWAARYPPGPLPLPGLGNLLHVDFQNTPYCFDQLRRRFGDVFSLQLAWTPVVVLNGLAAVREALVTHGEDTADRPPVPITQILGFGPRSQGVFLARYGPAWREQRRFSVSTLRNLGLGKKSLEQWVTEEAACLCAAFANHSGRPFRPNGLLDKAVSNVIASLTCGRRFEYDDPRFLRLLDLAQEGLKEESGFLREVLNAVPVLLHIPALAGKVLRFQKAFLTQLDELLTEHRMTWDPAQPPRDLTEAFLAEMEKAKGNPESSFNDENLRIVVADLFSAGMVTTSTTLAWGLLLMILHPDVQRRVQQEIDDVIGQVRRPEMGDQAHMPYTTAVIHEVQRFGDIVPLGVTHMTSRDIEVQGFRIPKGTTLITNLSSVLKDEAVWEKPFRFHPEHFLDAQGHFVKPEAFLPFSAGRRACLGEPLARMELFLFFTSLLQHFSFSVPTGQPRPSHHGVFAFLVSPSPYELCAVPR

## Cc1ccc(OC(=O)c2cccc([N+](=O)[O-])c2)c(-n2nc3ccccc3n2)c1
[1]
  EC50: 0.588 µM (active)

## CC1=CCC2C(=O)N(c3ccc(C)c(Br)c3)C(=O)C2C1 (stereo not drawn)
[2]
  EC50: > 195 µM (not active)

## Nc1c(-c2cccs2)cnn1-c1nc(-c2ccc(F)cc2)cs1
[1]
  EC50: 0.304 µM (active)
[3]
  AC50: 0.158 µM (inconclusive)

## CC1CCCN(C/C=C/c2ccccc2[N+](=O)[O-])C1 (stereo not drawn)
[3]
  AC50: 0.2 µM (inconclusive)

## O=C1CC(N2CC=C(c3ccc(F)cc3)CC2)C(=O)N1c1ccc(F)cc1 (stereo not drawn)
[2]
  EC50: > 195 µM (not active)

## COc1ccc(-c2nc(CSCC(=O)NCCC3=CCCCC3)c(C)o2)cc1OC
[4]
  CC50: > 50 µM (active)

## CCC1(C)Cc2c(sc3nnn(CC(=O)Nc4ccc(C)cc4)c(=O)c23)CO1 (stereo not drawn)
[5]
  AC50: 22.4 µM (inconclusive)

## COc1ccc(Oc2ncc3ncc(=O)n(Cc4cccs4)c3n2)cc1
[6]; read-out: AC50
  AC50: 25.1 µM (inconclusive)
[5]
  AC50: 39.8 µM (inconclusive)

## N#C/C(=C(\O)Nc1ccccc1)c1nc2ccccc2[nH]1
[7]
  IC50: 2.43 µM (active)

## COc1cccc(-c2cncnc2NCc2cnc(C)cn2)c1
[5]
  AC50: 15.8 µM (inconclusive)

## CCCCCCC/C=C\CCCCCCCCC(=O)O
[6]; read-out: AC50
  AC50: 39.8 µM (inconclusive)
[3]
  AC50: 39.8 µM (inconclusive)

## COc1cc(C(=O)OC2C[C@H]3CC[C@@H](C2)N3C)ccc1O (stereo partly drawn)
[5]
  AC50: 7.94 µM (inconclusive)

## COc1c(OC(C)=O)ccc(/C=C/c2ccc3cccc(OC)c3n2)c1[N+](=O)[O-]
[4]
  CC50: > 50 µM (active)

## CC(C)OC(=O)C(C)Oc1ccc(C(=O)NCCc2ccccc2)cc1 (stereo not drawn)
[7]
  IC50: 10.3 µM (active)

## Cc1c(C(=O)Nc2ccc3c(c2)OCCO3)cnn1C
[2]
  EC50: 3.49 µM (active)

## CC1Cc2ccccc2N1C(=O)COC(=O)c1ccc(S(=O)(=O)N(C)C)cc1 (stereo not drawn)
[2]
  EC50: > 195 µM (not active)

## O=C(OCn1nnc2ccccc2c1=O)c1cccs1
[7]
  IC50: 15.6 µM (active)

## CCNC(=O)COC(=O)c1cc(-c2ccc(OC)cc2)nc2ccccc12
[3]
  AC50: 2.51 µM (inconclusive)

## NC(=O)c1c(NC(=O)c2ccccc2F)sc2c1CCCC2
[8]
  EC50: 25.1 µM (active)

## COCCCNCC(=O)c1c(N)n(Cc2ccccc2)c(=O)n(C)c1=O
[6]; read-out: AC50
  AC50: 35.5 µM (inconclusive)
[5]
  AC50: 14.1 µM (inconclusive)

## O=C(c1ccncc1)N1CCC2(CCN(Cc3ccccc3)CC2)CC1
[6]
  AC50: inconclusive
[5]
  AC50: 12.6 µM (inconclusive)

## CSCCC(=O)N1CCCC(CNC(=O)c2ccc(-c3ccccc3)cc2)C1 (stereo not drawn)
[7]
  IC50: 11.6 µM (active)

## O=C(/C=C/c1ccc(N2CCCCC2)c([N+](=O)[O-])c1)c1ccc(S(=O)(=O)N2CCCC2)cc1
[9]
  EC50: 4.4 µM (active)
[10]
  EC50: 3.42 µM (active)

## COc1ccccc1C1NC(=O)CCC1[N+](=O)[O-] (stereo not drawn)
[2]
  EC50: > 195 µM (not active)

## Cn1c(CCN2CCCC2)nc2cc(NS(=O)(=O)c3ccccc3)ccc21
[11]
  AC50: 6.61 µM (active)

## O=C(CNC(=S)N(CCCN1CCOCC1)Cc1cccs1)NCc1ccccc1Cl
[2]
  EC50: > 195 µM (not active)

## O=C(OCc1cc(=O)n2cc(Br)ccc2n1)C1COc2ccccc2O1 (stereo not drawn)
[2]
  EC50: > 195 µM (not active)

Reference: ChEMBL document CHEMBL1201862, “PubChem BioAssay data set” (2004)
